How the values were obtained:
[1] = molecular target: T1, Avi-KRAS G12D (1-169) GppNHp/RAF1 RBD-3xFLAG (52-151) (Homo sapiens, UniProt P01116, G12D); test: Raf1-KRAS G12D-GppNHP disruption HTRF assay (Biological Example 1); format: binding; details: KRAS G12D, GppNHp-loaded; class symbols
T1 construct: Avi-KRAS G12D (1-169)
Method in brief: (§1)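 HTRF PPI disruption; buffer 50 mM Tris pH 7.5, 100 mM NaCl, 5 mM MgCl2, 0.1% BSA, 0.01% Tween, 10% DMSO. Protein mix 1 h RT shaking, reagent mix 1 h RT shaking. Data as % activity vs DMSO (100%).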

[2] = molecular target: T2, Avi-KRAS G12R (1-169) GppNHp/RAF1 RBD-3xFLAG (52-151) (Homo sapiens, UniProt P01116, G12R); test: Raf1-KRAS G12R-GppNHP disruption HTRF assay (Biological Example 1); format: binding; details: KRAS G12R, GppNHp-loaded; class symbols
T2 construct: Avi-KRAS G12R (1-169)
T2 sequence (P01116 1-169 isoform P01116-2 G12R): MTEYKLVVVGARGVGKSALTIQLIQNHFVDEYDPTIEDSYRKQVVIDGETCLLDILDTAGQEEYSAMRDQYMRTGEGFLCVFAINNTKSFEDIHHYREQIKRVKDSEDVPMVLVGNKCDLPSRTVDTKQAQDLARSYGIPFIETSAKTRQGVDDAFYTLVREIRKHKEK
Method in brief: as §1

[3] = molecular target: T3, Avi-KRAS G12V (1-169) GppNHp/RAF1 RBD-3xFLAG (52-151) (Homo sapiens, UniProt P01116, G12V); test: Raf1-KRAS G12V-GppNHP disruption HTRF assay (Biological Example 1); format: binding; details: KRAS G12V, GppNHp-loaded; class symbols
T3 construct: Avi-KRAS G12V (1-169)
T3 sequence (P01116 1-169 isoform P01116-2 G12V): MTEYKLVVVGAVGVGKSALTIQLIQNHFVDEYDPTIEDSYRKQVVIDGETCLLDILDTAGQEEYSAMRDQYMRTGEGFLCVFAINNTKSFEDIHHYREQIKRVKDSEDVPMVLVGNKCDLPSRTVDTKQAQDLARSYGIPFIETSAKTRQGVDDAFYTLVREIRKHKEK
Method in brief: as §1

[4] = molecular target: T4, Avi-KRAS WT (1-169) GppNHp/RAF1 RBD-3xFLAG (52-151) (Homo sapiens, UniProt P01116); test: Raf1-KRAS WT-GppNHP disruption HTRF assay (Biological Example 1); format: binding; details: KRAS WT, GppNHp-loaded; class symbols
T4 construct: Avi-KRAS WT (1-169)
T4 sequence (P01116 1-169 isoform P01116-2): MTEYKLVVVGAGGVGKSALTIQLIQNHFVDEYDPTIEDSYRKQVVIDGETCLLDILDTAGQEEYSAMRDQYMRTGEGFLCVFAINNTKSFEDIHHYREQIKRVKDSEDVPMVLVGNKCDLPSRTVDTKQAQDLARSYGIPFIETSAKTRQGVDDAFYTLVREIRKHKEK
Method in brief: as §1

GP2d cells (KRAS G12D) = test: Cell-based pERK HTRF assay in GP2d cell (Biological Example 2); details: GP2d, GP2d (KRAS G12D) cells, pERK HTRF; class symbols
Method in brief: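 Treatment with test compounds lasted one hour in DMEM containing 10% FBS, with DMSO held at 0.25%. Dilution series: 9 points, half-log spacing, highest 1 μM or 100 nM. Lysates were incubated 4–24 h at room temperature with antibody mix, then HTRF was read at 320 nm excitation.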

SW620 cells (KRAS G12V) = test: Cell-based pERK HTRF assay in SW620 cell (Biological Example 4); details: Homo sapiens, SW-620, SW620 (KRAS G12V) cells, pERK HTRF; class symbols
Method in brief: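 In SW620 cells grown in RPMI with 10% FBS, a 4 h compound treatment (0.25% DMSO, 9-point curve from 1 μM) preceded lysis. Phospho-ERK levels were then read by time-resolved FRET at 615 nm emission.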

T1 sequence (P01116 1-169 isoform P01116-2 G12D): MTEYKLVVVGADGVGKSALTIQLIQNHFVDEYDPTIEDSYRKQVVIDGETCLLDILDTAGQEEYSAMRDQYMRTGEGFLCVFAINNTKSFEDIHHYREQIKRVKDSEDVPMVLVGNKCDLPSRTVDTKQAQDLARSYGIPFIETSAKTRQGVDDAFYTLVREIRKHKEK

| SMILES | IC50 [1] | IC50 [2] | IC50 [3] | IC50 [4] | IC50 (GP2d cells (KRAS G12D)) | IC50 (SW620 cells (KRAS G12V)) |
| --- | --- | --- | --- | --- | --- | --- |
| CCN(c1nc(OC[C@@]23CCCN2C[C@H](F)C3)nc2c(F)c(-c3ccc(F)c4sc(N)c(C#N)c34)c(C(F)(F)F)cc12)[C@@H]1C[C@H](C)N(C(=O)COC)C1 (atropisomer, axis not shown) [Compound 589] | 0.1 to 1 µM | 0.1 to 1 µM | 0.1 to 1 µM | 0.1 to 1 µM | < 0.1 µM | < 0.1 µM |
| CCN(c1nc(OC[C@@]23CCCN2C[C@H](F)C3)nc2c(F)c(-c3ccc(F)c4sc(N)c(C#N)c34)c(C(F)(F)F)cc12)[C@H]1CCN(C(C)=O)[C@@H]1C (atropisomer, axis not shown) [Compound 591] | < 0.1 µM | < 0.1 µM | < 0.1 µM | < 0.1 µM | < 0.1 µM | < 0.1 µM |
| CN(C)C(=O)c1nn2c(c1C(F)(F)F)CN(c1nc(OC[C@@]34CCCN3C[C@H](F)C4)nc3c(F)c(-c4ccc(F)c5sc(N)c(C#N)c45)c(C(F)(F)F)cc13)CC2 (atropisomer, axis not shown) [Compound 596] | < 0.1 µM | 0.1 to 1 µM | 0.1 to 1 µM | 0.1 to 1 µM | < 0.1 µM | < 0.1 µM |
| CCN(c1nc(OC[C@@]23CCCN2C[C@H](F)C3)nc2c(F)c(-c3ccc(F)c4sc(N)c(C#N)c34)c(C(F)(F)F)cc12)[C@@H]1C[C@@H](C)N(C(=O)COC)C1 (atropisomer, axis not shown) [Compound 597] | 0.1 to 1 µM | 0.1 to 1 µM | 0.1 to 1 µM | < 0.1 µM | < 0.1 µM | < 0.1 µM |
| CCN(c1nc(OC[C@@]23CCCN2C[C@H](F)C3)nc2c(F)c(-c3ccc(F)c4sc(N)c(C#N)c34)c(C(F)(F)F)cc12)[C@H]1CCN(C(=O)N(C)C2COC2)C1 (atropisomer, axis not shown) [Compound 598] | < 0.1 µM | < 0.1 µM | < 0.1 µM | < 0.1 µM | < 0.1 µM | < 0.1 µM |
| CCN(c1nc(OC[C@@]23CCCN2C[C@H](F)C3)nc2c(F)c(-c3ccc(F)c4sc(N)c(C#N)c34)c(C(F)(F)F)cc12)[C@H]1CCN(C(=O)OC2CC2)C1 (atropisomer, axis not shown) [Compound 599] | < 0.1 µM | < 0.1 µM | < 0.1 µM | < 0.1 µM | < 0.1 µM | < 0.1 µM |
| C[C@@H](c1cccnc1N)N(C)c1nc(OC[C@@]23CCCN2C[C@H](F)C3)nc2c(F)c(-c3ccc(F)c4sc(N)c(C#N)c34)c(C(F)(F)F)cc12 (atropisomer, axis not shown) [Compound 601] | 0.1 to 1 µM | 0.1 to 1 µM | 0.1 to 1 µM | 0.1 to 1 µM | < 0.1 µM | < 0.1 µM |
| N#Cc1c(N)sc2c(F)ccc(-c3c(C(F)(F)F)cc4c(N(Cc5cccnc5N)C5CC5)nc(OC[C@@]56CCCN5C[C@H](F)C6)nc4c3F)c12 (atropisomer, axis not shown) [Compound 602] | 1 to 10 µM | 1 to 10 µM | 1 to 10 µM | 1 to 10 µM | < 0.1 µM | < 0.1 µM |
| CCN(c1nc(OC[C@@]23CCCN2C[C@H](F)C3)nc2c(F)c(-c3ccc(F)c4sc(N)c(C#N)c34)c(C(F)(F)F)cc12)[C@H]1CCN(C(=O)N2C[C@@H](F)[C@@H](F)C2)C1 (atropisomer, axis not shown) [Compound 609] | < 0.1 µM | < 0.1 µM | < 0.1 µM | < 0.1 µM | < 0.1 µM | < 0.1 µM |
| CCN(c1nc(OC[C@@]23CCCN2C[C@H](F)C3)nc2c(F)c(-c3ccc(F)c4sc(N)c(C#N)c34)c(C(F)(F)F)cc12)[C@@H]1CC(=O)N(CC(F)F)C1 (atropisomer, axis not shown) [Compound 612] | < 0.1 µM | < 0.1 µM | < 0.1 µM | < 0.1 µM | < 0.1 µM | < 0.1 µM |
| CN(c1nc(OC[C@@]23CCCN2C[C@H](F)C3)nc2c(F)c(-c3ccc(F)c4sc(N)c(C#N)c34)c(C(F)(F)F)cc12)[C@H]1CC(=O)N(C2CC2)C1 (atropisomer, axis not shown) [Compound 616] | < 0.1 µM | < 0.1 µM | < 0.1 µM | < 0.1 µM | < 0.1 µM | < 0.1 µM |
| CCN(c1nc(OC[C@@]23CCCN2C[C@H](F)C3)nc2c(F)c(-c3ccc(F)c4sc(N)c(C#N)c34)c(C(F)(F)F)cc12)[C@H]1CCN(C(=O)OCC2CC2)C1 (atropisomer, axis not shown) [Compound 620] | < 0.1 µM | < 0.1 µM | < 0.1 µM | 0.1 to 1 µM | < 0.1 µM | < 0.1 µM |
| Cc1nnn2c1CN(c1nc(OC[C@@]34CCCN3C[C@H](F)C4)nc3c(F)c(-c4ccc(F)c5sc(N)c(C#N)c45)c(C(F)(F)F)cc13)[C@@H](C)C2 (atropisomer, axis not shown) [Compound 624] | 0.1 to 1 µM | 0.1 to 1 µM | 0.1 to 1 µM | 0.1 to 1 µM | < 0.1 µM | < 0.1 µM |
| C[C@H]1Cn2nnc(C#N)c2CN1c1nc(OC[C@@]23CCCN2C[C@H](F)C3)nc2c(F)c(-c3ccc(F)c4sc(N)c(C#N)c34)c(C(F)(F)F)cc12 (atropisomer, axis not shown) [Compound 625] | 0.1 to 1 µM | 1 to 10 µM | 1 to 10 µM | 1 to 10 µM | < 0.1 µM | < 0.1 µM |
| CCN(c1nc(OC[C@@]23CCCN2C[C@H](F)C3)nc2c(F)c(-c3ccc(F)c4sc(N)c(C#N)c34)c(C(F)(F)F)cc12)[C@H]1C[C@@H]2CCC(=O)N2C1 (atropisomer, axis not shown) [Compound 628] | < 0.1 µM | < 0.1 µM | < 0.1 µM | < 0.1 µM | < 0.1 µM | < 0.1 µM |
| CCN(c1nc(OC[C@@]23CCCN2C[C@H](F)C3)nc2c(F)c(-c3ccc(F)c4sc(N)c(C#N)c34)c(C(F)(F)F)cc12)[C@@H]1C[C@@H](C)N(C(=O)C2COC2)C1 (atropisomer, axis not shown) [Compound 629] | 0.1 to 1 µM | 0.1 to 1 µM | 0.1 to 1 µM | 0.1 to 1 µM | < 0.1 µM | < 0.1 µM |
| CCN(c1nc(OC[C@@]23CCCN2C[C@H](F)C3)nc2c(F)c(-c3ccc(F)c4sc(N)c(C#N)c34)c(C(F)(F)F)cc12)[C@@H]1C[C@H](C)N(C(=O)C2COC2)C1 (atropisomer, axis not shown) [Compound 630] | 0.1 to 1 µM | 0.1 to 1 µM | 0.1 to 1 µM | 0.1 to 1 µM | < 0.1 µM | < 0.1 µM |
| CCN(c1nc(OC[C@@]23CCCN2C[C@H](F)C3)nc2c(F)c(-c3ccc(F)c4sc(N)c(C#N)c34)c(C(F)(F)F)cc12)[C@H]1C[C@@H](COC)N(C(C)=O)C1 (atropisomer, axis not shown) [Compound 632] | 0.1 to 1 µM | 0.1 to 1 µM | 0.1 to 1 µM | 0.1 to 1 µM | < 0.1 µM | < 0.1 µM |
| CCN1C[C@@H](N(CC)c2nc(OC[C@@]34CCCN3C[C@H](F)C4)nc3c(F)c(-c4ccc(F)c5sc(N)c(C#N)c45)c(C(F)(F)F)cc23)CC1=O (atropisomer, axis not shown) [Compound 634] | < 0.1 µM | < 0.1 µM | < 0.1 µM | < 0.1 µM | < 0.1 µM | < 0.1 µM |
| CCN(c1nc(OC[C@@]23CCCN2C[C@H](F)C3)nc2c(F)c(-c3ccc(F)c4sc(N)c(C#N)c34)c(C(F)(F)F)cc12)[C@H]1CC(=O)N(CCF)C1 (atropisomer, axis not shown) [Compound 635] | < 0.1 µM | < 0.1 µM | 0.1 to 1 µM | < 0.1 µM | < 0.1 µM | < 0.1 µM |
| CCN(c1nc(OC[C@@]23CCCN2C[C@H](F)C3)nc2c(F)c(-c3ccc(F)c4sc(N)c(C#N)c34)c(C(F)(F)F)cc12)[C@H]1CCN(C(=O)N2CC3(COC3)C2)C1 (atropisomer, axis not shown) [Compound 637] | < 0.1 µM | < 0.1 µM | < 0.1 µM | < 0.1 µM | < 0.1 µM | < 0.1 µM |
